From paper PMC10941186, “Real-Time Biosynthetic Reaction Monitoring Informs the Mechanism of Action of Antibiotics” (Journal of the American Chemical Society, 2024)

Experiments:
Assay type in all cases: biochemical
YbjG = target: T1, YbjG (Escherichia coli, UniProt P75806); experiment: thin-layer chromatography phosphatase assay; conditions: unaffected by EDTA or CaCl2
T1 construct: construct details only in supplement
T1 sequence (P75806 1-198): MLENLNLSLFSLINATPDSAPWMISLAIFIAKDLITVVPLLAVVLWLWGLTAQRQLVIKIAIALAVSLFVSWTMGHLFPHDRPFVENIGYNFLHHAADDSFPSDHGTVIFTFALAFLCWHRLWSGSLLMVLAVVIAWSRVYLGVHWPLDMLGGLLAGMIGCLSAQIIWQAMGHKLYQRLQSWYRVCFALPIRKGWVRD

PgpB^Bs = target: T2, PgpB^Bs (Bacillus subtilis, UniProt O34349); experiment: native mass spectrometry, real-time reaction monitoring
T2 construct: expressed in E. coli, purified, LDAO micelles; monomer; tag details not given
T2 sequence (O34349 1-203): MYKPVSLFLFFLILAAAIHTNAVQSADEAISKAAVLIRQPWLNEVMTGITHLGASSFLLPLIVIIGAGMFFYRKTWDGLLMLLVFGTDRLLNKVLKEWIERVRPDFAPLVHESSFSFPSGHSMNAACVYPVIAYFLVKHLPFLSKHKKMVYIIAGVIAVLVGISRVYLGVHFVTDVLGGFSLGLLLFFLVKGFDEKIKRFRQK

PgpB^Ec = target: T3, PgpB^Ec (Escherichia coli, UniProt P0A924); experiment: as above
T3 construct: expressed and purified from E. coli membranes, LDAO micelles; monomer; tag details not given (PgpB-his plasmid used in cells)
T3 sequence (P0A924 2-254): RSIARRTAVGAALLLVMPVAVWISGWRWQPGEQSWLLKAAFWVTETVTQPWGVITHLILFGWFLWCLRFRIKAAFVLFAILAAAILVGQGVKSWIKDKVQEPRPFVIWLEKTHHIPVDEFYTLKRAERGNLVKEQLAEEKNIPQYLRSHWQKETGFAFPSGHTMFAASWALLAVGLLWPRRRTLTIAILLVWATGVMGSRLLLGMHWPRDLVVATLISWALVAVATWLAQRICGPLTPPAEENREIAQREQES

UppP = target: T4, UppP (Escherichia coli, UniProt P60932); experiment: as above
T4 construct: expressed and purified from E. coli membranes, LDAO micelles, delipidated for activity
T4 sequence (P60932 1-273): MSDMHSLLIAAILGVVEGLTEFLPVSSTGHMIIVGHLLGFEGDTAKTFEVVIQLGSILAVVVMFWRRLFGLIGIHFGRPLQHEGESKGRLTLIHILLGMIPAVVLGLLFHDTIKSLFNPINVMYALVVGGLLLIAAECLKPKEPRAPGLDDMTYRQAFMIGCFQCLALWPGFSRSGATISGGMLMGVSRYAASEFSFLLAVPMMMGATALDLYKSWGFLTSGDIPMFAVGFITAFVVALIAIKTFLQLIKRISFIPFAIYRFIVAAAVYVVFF

[1] = within 1 min, only enzyme-product complexes seen

For `CC(C)=CCC/C(C)=C/CC/C(C)=C/CC/C(C)=C/CC/C(C)=C/CC/C(C)=C/CC/C(C)=C/CC/C(C)=C/CC/C(C)=C/CC/C(C)=C/CC/C(C)=C/COP(=O)(O)OP(=O)(O)O` [C55-PP], the “thin-layer chromatography phosphatase assay” value (YbjG) was “the activity of YbjG against C55-PP is unaffected by EDTA or CaCl2”, the “native mass spectrometry, real-time reaction monitoring” value (from here on “native mass spectrometry”) (PgpB^Bs; [1]) was “We next examined the activity of PgpB of B. subtilis (PgpB^Bs) toward DGPP and C55-PP” and the “native mass spectrometry” value (PgpB^Ec; 3.5 uM protein, 10 uM C55-PP, slowly processed) was “we observe intense binding of C55-PP molecules to the enzyme”.
With `CC(C)=CCC/C(C)=C/CC/C(C)=C/COP(=O)(O)OP(=O)(O)O` [C15-PP] the “native mass spectrometry” value (UppP; 3.5 uM delipidated protein, 50 uM C15-PP) was “peaks corresponding to ligand-free UppP and multiple enzyme–substrate complexes (UppP)(C15-PP)n”.
For `CCCCCCCC/C=C\CCCCCCCC(=O)OC[C@H](COP(=O)(O)OP(=O)(O)O)OC(=O)CCCCCCC/C=C\CCCCCCCC` [DGPP, 1,2-dioleoylglycerol diphosphate], the “native mass spectrometry” value (UppP; poorly processed substrate) was “The resultant spectra are dominated by peaks assigned to the bound substrate”, the “native mass spectrometry” value (PgpB^Bs; [1]) was “peaks assigned to enzyme–product complexes with no residual substrate” and the “native mass spectrometry” value (PgpB^Ec; 3.5 uM protein, 10 uM DGPP, stoichiometries 1:1 to 1:4, activity independent of divalent cations) was “DGPP incubated with PgpB^Ec exhibited intense peaks corresponding to the enzyme–substrate and enzyme–product complexes”.
For `CC(C)=CCC/C(C)=C/CC/C(C)=C/CC/C(C)=C\CC/C(C)=C\CC/C(C)=C\CC/C(C)=C\CC/C(C)=C\CC/C(C)=C\CC/C(C)=C\CC/C(C)=C\COP(=O)(O)O` [C55-P], the “native mass spectrometry” value (UppP; product formed in situ from C55-PP) was “only the C55-P product was observed in complex with the protein”.
In the case of `CCCCCCCC/C=C\CCCCCCCC(=O)OC[C@@H](O)COP(=O)(O)O` [LPA], the “native mass spectrometry” value (PgpB^Bs; 3.5 uM protein with 50 uM LPA, 5 uM with 20 uM (Figure 2C)) is reported as “The resulting spectra exhibited a progressive loss of protein-bound LPA as a function of time”.
For `CCCCCCCC/C=C\CCCCCCCC(=O)OC[C@H](COP(=O)(O)O)OC(=O)CCCCCCC/C=C\CCCCCCCC` [DGP, 1,2-dioleoylglycerol monophosphate], the “native mass spectrometry” value (PgpB^Ec; product formed in situ from DGPP, ternary complex with DGPP) was “ternary complex formed by PgpB^Ec with the substrate DGPP and the monophosphorylated product DGP”.
